Data from patent US5616615A, “Enaminone esters” (priority 1995, dated 1997).
Where two headings read alike, the source gives them in different places.

Assays:
[1] = system: Subcutaneous Pentylenetetrazol seizure; experiment: sc Met subcutaneous pentylenetetrazol (Metrazol) seizure test, mice; assay type: in vivo; details: Mus musculus, sc, read-out: scMet, animals protected/tested (converted)
Experimental: 2. sc Met--Subcutaneous Pentylenetetrazol (Metrazol^R) Seizure Test
The animal is observed for 30 minutes. Failure to observe even a threshold seizure (a single episode of clonic spasms of at least 5 seconds duration) is defined as protection and the results are expressed as the number of animals protected/the number of animals tested.

[2] = system: Maximal electroshock seizures; experiment: MES maximal electroshock seizure test, mice ip; assay type: in vivo; details: Mus musculus, ip; for responders at 100 mg/kg: read-out: MES, animals protected/tested (converted); for responders at 300 mg/kg: read-out: MES, animals protected/tested
Experimental: Three tests were performed:
1. MES--Electroshock Seizure Test
(§1) Maximal electroshock seizures are elicited with a 60-cycle alternating current of 50 mA intensity (5-7 times that necessary to elicit minimal electroshock seizures) delivered via corneal electrodes for 0.2 seconds. A drop of 0.9% saline is instilled in the eye prior to application of the electrodes in order to […].

[3] = system: Maximal electroshock seizures; experiment: Phase VI oral MES test, rats; assay type: in vivo; details: Rattus norvegicus, oral, 50 mg/kg, read-out: MES, animals protected/tested (converted)
Description: as §1
(§2) This oral screen is designated as phase VI.

in vivo = details: rat, po, 50 mg/kg
Description: as §2

seizures = experiment: Anticonvulsant evaluation (ASP phase I / overall); assay type: in vivo, mice; details: Mus musculus, ip; Phase I; read-out: ASP Classification
Experimental: The first phase of the ADD Program involved performing tests on male Carworth Farms #1 mice. […] Three tests were performed:
as §1
The animal is observed for 30 minutes.

CC1(C)CC(=O)C=C(Nc2ccc([N+](=O)[O-])cc2)C1 [Compound 138]
responders at 100 mg/kg ([1]; 0.5 h, 30 min): 0% | responders at 300 mg/kg ([1]; 0.5 h, 30 min): 0% | responders at 100 mg/kg ([1]; 4 h, 4 h): 0% | responders at 300 mg/kg ([1]; 4 h, 4 h): 0% | responders at 100 mg/kg ([2]; 0.5 h, 30 min): 33.3% | responders at 300 mg/kg ([2]; 0.5 h, 30 min): 100% | responders at 100 mg/kg ([2]; 4 h, 4 h): 0% | responders at 300 mg/kg ([2]; 4 h, 4 h): 0% | responders at 50 mg/kg ([3]; 0.5 h, 0.50 h): 0% | responders at 50 mg/kg ([3]; 0.25 h): 0% | responders at 50 mg/kg ([3]; 1.00 h): 0% | responders at 50 mg/kg ([3]; 2.00 h): 50% | responders at 50 mg/kg ([3]; 4.00 h): 0% | Tox, animals toxic/tested (in vivo): 0/4 | minimal effective dose (seizures): < 100 mg/kg

CC1(C)CC(=O)C=C(Nc2ccc(C(F)(F)F)cc2)C1 [Compound 144]
responders at 100 mg/kg ([1]; 0.5 h, 30 min): 0% | responders at 300 mg/kg ([1]; 0.5 h, 30 min): 100% | responders at 100 mg/kg ([1]; 4 h, 4 h): 0% | responders at 300 mg/kg ([1]; 4 h, 4 h): 0% | responders at 100 mg/kg ([2]; 0.5 h, 30 min): 0% | responders at 300 mg/kg ([2]; 0.5 h, 30 min): 0% | responders at 100 mg/kg ([2]; 4 h, 4 h): 66.7% | responders at 300 mg/kg ([2]; 4 h, 4 h): 0% | responders at 50 mg/kg ([3]; 0.5 h, 0.50 h): 0% | responders at 50 mg/kg ([3]; 0.25 h): 0% | responders at 50 mg/kg ([3]; 1.00 h): 75% | responders at 50 mg/kg ([3]; 2.00 h): 25% | responders at 50 mg/kg ([3]; 4.00 h): 100% | Tox, animals toxic/tested (in vivo): 0/4 | minimal effective dose (seizures): < 100 mg/kg

CC1CC(=O)C=C(Nc2ccc(Cl)cc2)C1 (stereo not drawn) [Compound 146, 3-[(p-Chlorophenyl)amino]-5-methyl-2-cyclohexen-1-one]
responders at 100 mg/kg ([1]; 0.5 h, 30 min): 0% | responders at 300 mg/kg ([1]; 0.5 h, 30 min): 40% | responders at 100 mg/kg ([1]; 4 h, 4 h): 0% | responders at 300 mg/kg ([1]; 4 h, 4 h): 0% | responders at 100 mg/kg ([2]; 0.5 h, 30 min): 100% | responders at 300 mg/kg ([2]; 0.5 h, 30 min): 100% | responders at 100 mg/kg ([2]; 4 h, 4 h): 0% | responders at 300 mg/kg ([2]; 4 h, 4 h): 100% | responders at 50 mg/kg ([3]; 0.5 h, 0.50 h): 75% | responders at 50 mg/kg ([3]; 0.25 h): 25% | responders at 50 mg/kg ([3]; 1.00 h): 100% | responders at 50 mg/kg ([3]; 2.00 h): 100% | responders at 50 mg/kg ([3]; 4.00 h): 50% | Tox, animals toxic/tested (in vivo): 0/4 | minimal effective dose (seizures): < 100 mg/kg

O=C1C=C(Nc2ccc(Cl)cc2)CCC1 [Compound 147]
responders at 100 mg/kg ([1]; 0.5 h, 30 min): 0% | responders at 300 mg/kg ([1]; 0.5 h, 30 min): 0% | responders at 100 mg/kg ([1]; 4 h, 4 h): 0% | responders at 300 mg/kg ([1]; 4 h, 4 h): 0% | responders at 100 mg/kg ([2]; 0.5 h, 30 min): 100% | responders at 300 mg/kg ([2]; 0.5 h, 30 min): 100% | responders at 100 mg/kg ([2]; 4 h, 4 h): 0% | responders at 300 mg/kg ([2]; 4 h, 4 h): 100% | responders at 50 mg/kg ([3]; 0.5 h, 0.50 h): 100% | responders at 50 mg/kg ([3]; 0.25 h): 75% | responders at 50 mg/kg ([3]; 1.00 h): 50% | responders at 50 mg/kg ([3]; 2.00 h): 25% | responders at 50 mg/kg ([3]; 4.00 h): 25% | Tox, animals toxic/tested (in vivo): 0/4 | minimal effective dose (seizures): < 100 mg/kg

O=C1C=C(NCc2ccccc2)CCC1 [Compound 148]
responders at 100 mg/kg ([1]; 0.5 h, 30 min): 0% | responders at 300 mg/kg ([1]; 0.5 h, 30 min): 0% | responders at 100 mg/kg ([1]; 4 h, 4 h): 0% | responders at 300 mg/kg ([1]; 4 h, 4 h): 0% | responders at 100 mg/kg ([2]; 0.5 h, 30 min): 100% | responders at 300 mg/kg ([2]; 0.5 h, 30 min): 100% | responders at 100 mg/kg ([2]; 4 h, 4 h): 0% | responders at 300 mg/kg ([2]; 4 h, 4 h): 0% | responders at 50 mg/kg ([3]; 0.5 h, 0.50 h): 50% | responders at 50 mg/kg ([3]; 0.25 h): 0% | responders at 50 mg/kg ([3]; 1.00 h): 50% | responders at 50 mg/kg ([3]; 2.00 h): 50% | responders at 50 mg/kg ([3]; 4.00 h): 75% | Tox, animals toxic/tested (in vivo): 0/4 | minimal effective dose (seizures): < 100 mg/kg

CC(C)(C)c1ccc(NC2=CC(=O)CCC2)cc1 [Compound 150]
responders at 100 mg/kg ([1]; 0.5 h, 30 min): 0% | responders at 300 mg/kg ([1]; 0.5 h, 30 min): 60% | responders at 100 mg/kg ([1]; 4 h, 4 h): 0% | responders at 300 mg/kg ([1]; 4 h, 4 h): 0% | responders at 100 mg/kg ([2]; 0.5 h, 30 min): 100% | responders at 300 mg/kg ([2]; 0.5 h, 30 min): 100% | responders at 100 mg/kg ([2]; 4 h, 4 h): 0% | responders at 300 mg/kg ([2]; 4 h, 4 h): 100% | responders at 50 mg/kg ([3]; 0.5 h, 0.50 h): 50% | responders at 50 mg/kg ([3]; 0.25 h): 50% | responders at 50 mg/kg ([3]; 1.00 h): 75% | responders at 50 mg/kg ([3]; 2.00 h): 25% | responders at 50 mg/kg ([3]; 4.00 h): 50% | Tox, animals toxic/tested (in vivo): 0/4 | minimal effective dose (seizures): < 100 mg/kg
